What was measured:
Type in all cases: in vivo
Myzus persicae [1] = experiment: Myzus persicae test, Example D (sprayed to runoff, ammonium salt boosting)
Protocol: (§1) Solvent: 7 parts by weight dimethylformamide
(§2) Emulsifier: 2 parts by weight alkylaryl polyglycol ether
(§3) An appropriate preparation of active ingredient is prepared by mixing 1 part by weight of active ingredient with the stated amounts of solvent and emulsifier and diluting the concentrate with water to the desired concentration. For the application with ammonium salts or phosphonium salts, these salts are added in a concentration of 1000 ppm to the spray liquor.
Paprika plants (Capsicum annum) heavily infested by the green peach aphid (Myzus persicae) are treated by being. sprayed to runoff with the preparation of active ingredient at the desired concentration. After the desired time the destruction in % is ascertained. 100% means that all of the animals have been killed; 0% means that no animals have been killed.

Myzus persicae [2] = experiment: Myzus persicae test, Example F (sprayed to runoff, ammonium salt plus penetrant)
Protocol: as §1, §2
An appropriate preparation of active ingredient is prepared by mixing 1 part by weight of active ingredient with the stated amounts of solvent and emulsifier and diluting the concentrate with water to the desired concentration. For the application with ammonium salts or phosphonium salts and penetrant (rapeseed oil methyl ester 500 EW), they are each added in a concentration of 1000 ppm to the spray liquor.
After the desired time the destruction in % is ascertained. 100% means that all of the animals have been killed; 0% means that no animals have been killed.

Aphis gossypii [3] = experiment: Aphis gossypii test, Example G (sprayed to runoff, ammonium salt plus penetrant)
Protocol: as §1, §2
An appropriate preparation of active ingredient is prepared by mixing 1 part by weight of active ingredient with the stated amounts of solvent and emulsifier and diluting the concentrate with emulsifier-containing water to the desired concentration. For the application with ammonium salts or phosphonium salts and penetrants (rapeseed oil methyl esters 500 EW), they are each added in a concentration of 1000 ppm a.i. to the spray liquor.
(§4) Cotton plants (Gossypium hirsutum) heavily infested by the cotton aphid (Aphis gossypii) are sprayed to runoff with the preparation of active ingredient at the desired concentration.
(§5) After the desired time the destruction in % is ascertained. 100% means that all of the aphids have been killed; 0% means than no aphids were killed.

Aphis gossypii [4] = experiment: Aphis gossypii test, Example E (sprayed to runoff, ammonium salt boosting)
Protocol: as §1, §2
as §3, with “concentrate with emulsifier-containing water to” for “concentrate with water to”
as §4, §5

[5] = 4 ppm active ingredient, +AS (1000 ppm)
[6] = 4 ppm active ingredient, no additive
[7] = 20 ppm active ingredient, +AS (1000 ppm)
[8] = 20 ppm active ingredient, no additive
[9] = 0.8 ppm active ingredient, +AS (1000 ppm)
[10] = 0.8 ppm active ingredient, +RME (1000 ppm)
[11] = 0.8 ppm active ingredient, +RME +AS (each 1000 ppm)
[12] = 0.8 ppm active ingredient, no additive
[13] = 4 ppm active ingredient, +RME (1000 ppm)
[14] = 4 ppm active ingredient, +RME +AS (each 1000 ppm)
[15] = 20 ppm active ingredient, +RME (1000 ppm)
[16] = 20 ppm active ingredient, +RME +AS (each 1000 ppm)

Structure (SMILES) | Degree of destruction/% after 6 days (Myzus persicae [1]; [5]) | Degree of destruction/% after 6 days (Myzus persicae [1]; [6]) | Degree of destruction/% after 6 days (Myzus persicae [1]; [7]) | Degree of destruction/% after 6 days (Myzus persicae [1]; [8]) | Degree of destruction/% after 6 days (Myzus persicae [2]; [9]) | Degree of destruction/% after 6 days (Myzus persicae [2]; [10]) | Degree of destruction/% after 6 days (Myzus persicae [2]; [11]) | Degree of destruction/% after 6 days (Myzus persicae [2]; [12]) | Degree of destruction/% after 6 days (Myzus persicae [2]; [5]) | Degree of destruction/% after 6 days (Myzus persicae [2]; [13]) | Degree of destruction/% after 6 days (Myzus persicae [2]; [14]) | Degree of destruction/% after 6 days (Myzus persicae [2]; [6]) | Degree of destruction/% after 6 days (Aphis gossypii [3]; [9]) | Degree of destruction/% after 6 days (Aphis gossypii [3]; [10]) | Degree of destruction/% after 6 days (Aphis gossypii [3]; [11]) | Degree of destruction/% after 6 days (Aphis gossypii [3]; [12]) | Degree of destruction/% after 6 days (Aphis gossypii [4]; [9]) | Degree of destruction/% after 6 days (Aphis gossypii [4]; [12]) | Degree of destruction/% after 6 days (Aphis gossypii [4]; [5]) | Degree of destruction/% after 6 days (Aphis gossypii [4]; [6]) | further results
Cc1cc(Cl)cc(C)c1C1=C(O)C2(CCC3(CC2)OCCO3)NC1=O [Example I-1-a-4] | 65% | 40% | 98% | 95% | 5% | 0% | 20% | 0% | 65% | 95% | 98% | 40% | 65% | 30% | 80% | 15% | 65% | 15% | 85% | 60% | –
CO[C@H]1CC[C@]2(CC1)NC(=O)C(c1c(C)cc(I)cc1C)=C2O [Example I-1-a-7] | 80% | 40% | – | – | 10% | 35% | 75% | 0% | – | – | – | – | 45% | 50% | 75% | 35% | – | – | 90% | 55% | Degree of destruction/% after 6 days (Aphis gossypii [3]; [5]): 90%; Degree of destruction/% after 6 days (Aphis gossypii [3]; [13]): 85%; Degree of destruction/% after 6 days (Aphis gossypii [3]; [14]): 95%; Degree of destruction/% after 6 days (Aphis gossypii [3]; [6]): 55%; Degree of destruction/% after 6 days (Aphis gossypii [4]; [7]): 99%; Degree of destruction/% after 6 days (Aphis gossypii [4]; [8]): 85%
Cc1cc(C)c(C2=C(O)C3(CCC(C)CC3)NC2=O)c(C)c1 (stereo not drawn) [Example I-1-a-8] | – | – | – | – | 55% | 60% | 80% | 20% | – | – | – | – | 40% | 20% | 60% | 0% | 40% | 0% | – | – | Degree of destruction/% after 6 days (Myzus persicae [1]; [9]): 55%; Degree of destruction/% after 6 days (Myzus persicae [1]; [12]): 20%
COC1CCC2(CC1)NC(=O)C(c1cc(C)ccc1Br)=C2O (stereo not drawn) [Example I-1-a-11] | – | – | 70% | 0% | – | – | – | – | 5% | 55% | 99% | 0% | – | – | – | – | – | – | 35% | 5% | Degree of destruction/% after 6 days (Aphis gossypii [3]; [5]): 35%; Degree of destruction/% after 6 days (Aphis gossypii [3]; [13]): 45%; Degree of destruction/% after 6 days (Aphis gossypii [3]; [14]): 80%; Degree of destruction/% after 6 days (Aphis gossypii [3]; [6]): 5%; Degree of destruction/% after 6 days (Aphis gossypii [4]; [7]): 80%; Degree of destruction/% after 6 days (Aphis gossypii [4]; [8]): 45%
COC1CCC2(CC1)NC(=O)C(c1c(Cl)cc(Cl)c(C)c1Cl)=C2O (stereo not drawn) [Example I-1-a-12] | – | – | 65% | 55% | – | – | – | – | 5% | 0% | 50% | 0% | 45% | 45% | 65% | 5% | 45% | 5% | 95% | 65% | Degree of destruction/% after 6 days (Myzus persicae [2]; [7]): 65%; Degree of destruction/% after 6 days (Myzus persicae [2]; [15]): 70%; Degree of destruction/% after 6 days (Myzus persicae [2]; [16]): 98%; Degree of destruction/% after 6 days (Myzus persicae [2]; [8]): 55%
COc1cc(C)cc(C)c1C1=C(O)C2(CCC(OC)CC2)OC1=O (stereo not drawn) [Example I-2-a-2] | 90% | 65% | – | – | 25% | 15% | 99% | 0% | – | – | – | – | 70% | 50% | 95% | 30% | 70% | 30% | 95% | 85% | Degree of destruction/% after 6 days (Myzus persicae [1]; [9]): 25%; Degree of destruction/% after 6 days (Myzus persicae [1]; [12]): 0%
Cc1ccc(-c2ccc(Cl)cc2)cc1C1=C(O)C(C)(C)OC1=O [Example I-2-a-3] | – | – | 15% | 0% | – | – | – | – | – | – | – | – | – | – | – | – | – | – | – | – | Degree of destruction/% after 6 days (Myzus persicae [2]; [7]): 15%; Degree of destruction/% after 6 days (Myzus persicae [2]; [15]): 35%; Degree of destruction/% after 6 days (Myzus persicae [2]; [16]): 80%; Degree of destruction/% after 6 days (Myzus persicae [2]; [8]): 0%; Degree of destruction/% after 6 days (Aphis gossypii [3]; [5]): 5%; Degree of destruction/% after 6 days (Aphis gossypii [3]; [13]): 0%; Degree of destruction/% after 6 days (Aphis gossypii [3]; [14]): 15%; Degree of destruction/% after 6 days (Aphis gossypii [3]; [6]): 0%; Degree of destruction/% after 6 days (Aphis gossypii [3]; [7]): 30%; Degree of destruction/% after 6 days (Aphis gossypii [3]; [15]): 0%; Degree of destruction/% after 6 days (Aphis gossypii [3]; [16]): 65%; Degree of destruction/% after 6 days (Aphis gossypii [3]; [8]): 0%; Degree of destruction/% after 6 days (Aphis gossypii [4]; [7]): 30%; Degree of destruction/% after 6 days (Aphis gossypii [4]; [8]): 0%
COc1cc(C)cc(Cl)c1C1=C(O)C2(CCC(OC)CC2)OC1=O (stereo not drawn) [Example I-2-a-4] | – | – | 80% | 60% | – | – | – | – | 0% | 0% | 70% | 0% | 45% | 45% | 70% | 10% | 45% | 10% | 90% | 70% | –
COc1cc(C)cc(C)c1-c1c(O)c(C)c(-c2ccccn2)oc1=O [Example I-4-a-1] | 45% | 0% | 95% | 75% | 5% | 0% | 40% | 0% | – | – | – | – | 15% | 0% | 45% | 0% | – | – | 40% | 0% | –
Cc1cc(Br)cc(C)c1-c1c(O)c(C)c(-c2ccccn2)oc1=O [Example I-4-a-3] | 70% | 5% | 85% | 40% | 5% | 20% | 98% | 0% | – | – | – | – | 40% | 0% | 80% | 0% | 40% | 0% | 70% | 25% | –
Cc1ccc(-c2ccc(Cl)cc2)cc1C1=C(O)C(C)(C)C(C)(C)OC1=O [Example I-10-a-1] | – | – | 25% | 0% | – | – | – | – | 5% | 20% | 55% | 0% | – | – | – | – | – | – | – | – | Degree of destruction/% after 6 days (Myzus persicae [2]; [7]): 25%; Degree of destruction/% after 6 days (Myzus persicae [2]; [15]): 65%; Degree of destruction/% after 6 days (Myzus persicae [2]; [16]): 99%; Degree of destruction/% after 6 days (Myzus persicae [2]; [8]): 0%; Degree of destruction/% after 6 days (Aphis gossypii [3]; [7]): 45%; Degree of destruction/% after 6 days (Aphis gossypii [3]; [15]): 45%; Degree of destruction/% after 6 days (Aphis gossypii [3]; [16]): 70%; Degree of destruction/% after 6 days (Aphis gossypii [3]; [8]): 0%; Degree of destruction/% after 6 days (Aphis gossypii [4]; [7]): 45%; Degree of destruction/% after 6 days (Aphis gossypii [4]; [8]): 0%
